According to US20070191402A1, “Method of searching substrate having antidiabetic activity” (KYOWA HAKKO KOGYO CO., LTD., priority 2002, published 2007):

Molecular target: T1, p31 protein (Mus musculus, UniProt Q99LB2)
T1 construct: endogenous in cells; host or cells: MIN6 (murine pancreatic beta cell line), digitonin-solubilized membrane fraction
T1 sequence (Q99LB2 20-279 limits assumed): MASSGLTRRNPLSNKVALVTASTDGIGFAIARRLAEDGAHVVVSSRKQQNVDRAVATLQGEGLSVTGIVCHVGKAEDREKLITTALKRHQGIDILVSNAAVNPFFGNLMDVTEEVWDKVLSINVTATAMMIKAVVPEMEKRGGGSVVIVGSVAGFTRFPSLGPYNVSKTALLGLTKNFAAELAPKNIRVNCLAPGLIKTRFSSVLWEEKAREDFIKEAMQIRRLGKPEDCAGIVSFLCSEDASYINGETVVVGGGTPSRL
Assay: Inhibition of binding of p31 protein from MIN6 solubilized membrane fraction to Compound 155-immobilized particle (SDS-PAGE)
Settings: 500 μmol/l tested substance, band on SDS-PAGE
Method: The solubilized membrane fraction of MIN6 as prepared in Example 12 was 10-fold diluted with the buffer B. The compound represented by Compound No. 16 (hereinafter referred to as “Compound 16”) at 500 μmol/l was added to 1 ml of the resulting dilution and gently stirred at 4° C. for 2 hours. As a control, the solubilized membrane fraction of MIN6 without addition of the Compound 16 was 10-fold diluted with buffer C [20 mmol/l HEPES, pH 7.4, 2 mmol/l EDTA, 150 mmol/l NaCl, 1% digitonin, 1 mmol/l PMSF, 1 μg/ml aprotinin], and 1 ml of the resulting dilution was gently stirred at 4° C. for 2 hours. Then, a particle immobilizing a compound represented by Compound No. 155 (hereinafter referred to as “Compound 155-immobilized particle”) as prepared in Example 8 was added to the solubilized membrane fraction solution with addition of the Compound 16 and the solubilized membrane fraction solution without addition of any tested substance and gently stirred at 4° C. for 30 minutes. Subsequently, the resulting solutions were centrifuged (12,000 rpm, one minute, 4° C.) to precipitate the particle to thereby remove the supernatants. Then, 750 μl of the buffer C was added and stirred for 3 seconds, followed by centrifugation (12,000 rpm, one minute, 4° C.), to precipitate the particle to remove the supernatant. Then, 750 μl of buffer D [20 mmol/l HEPES, pH 7.4, 2 mmol/l EDTA] was added and stirred for 3 seconds, followed by centrifugation (12,000 rpm, one minute, 4° C.), to precipitate the particle to remove the supernatant. Subsequently, 30 μl of an SDS-polyacrylamide gel electrophoresis sample buffer containing β-mercaptoethanol was added to solubilize the protein binding to Compound 155-immobilized particle, followed by SDS-polyacrylamide gel electrophoresis. Through the purification from the cell extract solution by adding Compound 16 via Compound 155-immobilized particle, p31 protein in which its specific binding to Compound 155-immobilized particle was inhibited by the compound represented by Compound No. 16 was found. […]

- inhibition of the binding of the p31 protein to the Compound 155-immobilized particle: inhibits the binding of the p31 protein
- inhibition of the binding of the p31 protein to the Compound 155-immobilized particle (listed as Compound No. 16): inhibited
Structure (SMILES): CCCN1C(=O)N2C[C@@H](Cc3ccccc3)N=C2c2[nH]c(C3CCCC3)nc21 [compound 16]
